Consider 16 molecules from US8772297B2, “TGF-β signal transduction inhibitor” (Kyoto University, priority 2010, dated 2014).

In general, inhibition refers to the relative decrease from the control value, in per cent. A lower inhibition goes with a weak effect. What is called IC50 is the concentration that inhibits the measured activity by half. Read a low IC50 as higher potency.

Experiment [1] deals with TGF-β signal transduction (Smad3/Smad4 complex activation) in x9CAGA/CCL64 cells. Kind of experiment: Evaluation of TGF-β signal transduction inhibitory activity (CAGA-luciferase reporter, x9CAGA/CCL64 cells stimulated with human TGF-β1). In kind it is cell-based, mink. The settings on record: 0.5 ng/ml human TGF-β1; for inhibition at 50 µM: 50 μM test compound. The protocol: The biological activity of a compound was determined by measuring the activation of Smad3/Smad4 complex which is a transcription factor showing activation induced by TGF-β stimulation. That is, a reporter plasmid having a DNA sequence (CAGA sequence), which is activated by binding to Smad3/Smad4 complex, is linked to the upstream of the luciferase gene (luminescence enzyme) was prepared. Mink lung epithelial cells CCL64 (named as x9CAGA/CCL64 cells) stably incorporating this reporter plasmid were established. The x9CAGA/CCL64 cells were cultured in DMEM medium containing 10% FBS, penicillin (100 U/ml), streptomycin ([…]), and blasticidin S (1 μg/ml). The x9CAGA/CCL64 cells were seeded in a 96 well plate at a concentration of 1.0×10^4 cells/well, and cultured in a 5% CO2 incubator at 37° C. The next day, the medium was changed to DMEM medium containing 0.2% FBS, and the test compound was added. […] After culture for 16 hr, the cells were washed with PBS, and lysed with 30 μl of cell lysis solution. […] The luminescence level of each well was measured using a Packard EnVision plate reader. The TGF-β signal transduction inhibitory activity of each compound in the x9CAGA/CCL64 cells was calculated from the ratio of the measurement values of the test compound-free well and the well with addition.
(In general: A reporter such as luciferase makes a cellular process visible.)

In experiment [2] the test system is mouse bile duct ligation induced hepatic fibrosis model. Briefly: Anti-fibrillization action in mouse bile duct ligation induced hepatic fibrosis model (BDL model). In kind it is in vivo. The settings on record: ICR mice, tail vein once a day for 14 days, qPCR vs GAPDH, FIG. 4. The protocol:
Hepatopathy caused by accumulation of bile in the liver and therewith associated liver fibrillization are induced by ligating the bile duct of mouse. The effect of the test compound on the hepatopathy and liver fibrillization associated therewith was evaluated. […]
mRNA was extracted from the hepatic tissue preserved in RNALater by using an RNA purification kit RNeasy Micro Kit (manufactured by QIAGEN), and the RNA concentration was determined using a spectrophotometer (Nano Drop). […] Using SYBR® Premix EX Taq™ (manufactured by TAKARA), a reaction mixture was prepared according to the package insert, qPCR reaction was performed using respective primers for αSMA and the internal standard GAPDH (manufactured by Invitrogen), and the mRNA expression level was quantified.
In general terms: In qPCR the cycle at which signal appears reflects the starting amount.

Some results are limits rather than exact numbers.

For “4-{[3-(4-oxanylmethoxyphenylsulfamoyl)benzenesulfonylamino]methyl}-piperidine-1-carboxylic acid tert-butyl ester [Y198]”, in experiment [1] (20 μM test compound), the “inhibitory activity (%)” value is “(>30.0%)”.

Molecule `CC(C)(C)OC(=O)N1CCC(CNS(=O)(=O)c2cccc(S(=O)(=O)N3CCCCC3)c2)CC1` [Y029, 4-{[3-(piperidine-1-sulfonyl)benzenesulfonylamino]methyl}piperidine-1-carboxylic acid tert-butyl ester] yielded an inhibition at 50 µM in experiment [1] of 88%.

Turning to `CC(C)(C)OC(=O)N1CCN(S(=O)(=O)c2cccc(S(=O)(=O)N3CCCCC3)c2)CC1` [Y043, 4-[3-(piperidine-1-sulfonyl)benzenesulfonyl]piperazine-1-carboxylic acid tert-butyl ester], in experiment [1], the inhibition at 50 µM was determined as 67%.

In experiment [1], `O=C(OCc1ccccc1)N1CCC(CNS(=O)(=O)c2cccc(S(=O)(=O)N3CCCCC3)c2)CC1` [Y053, 4-{[3-(piperidine-1-sulfonyl)benzenesulfonylamino]-methyl}-piperidine-1-carboxylic acid benzyl ester] showed an inhibition at 50 µM of 67%.

As for `CCN(CC)S(=O)(=O)c1cccc(S(=O)(=O)NCC2CCN(C(=O)OC(C)(C)C)CC2)c1` [Y080, 4-[(3-diethylsulfamoylbenzenesulfonylamino)methyl]piperidine-1-carboxylic acid tert-butyl ester], the inhibition at 50 µM in experiment [1] was determined as 66%.

Take `CC(C)(C)OC(=O)N1CCC(CNS(=O)(=O)c2cccc(S(=O)(=O)N3CCOCC3)c2)CC1` [Y081, 4-{[3-(morpholine-4-sulfonyl)benzenesulfonylamino]methyl}piperidine-1-carboxylic acid tert-butyl ester]: the inhibition at 50 µM in experiment [1] was found to be 45%.

Take `CC(C)(C)OC(=O)N1CCC(CNS(=O)(=O)c2cccc(S(N)(=O)=O)c2)CC1` [Y082, 4-[(3-sulfamoylbenzenesulfonylamino)methyl]piperidine-1-carboxylic acid tert-butyl ester]: in experiment [1], the inhibition at 50 µM amounted to 29%.

In experiment [1], `CC(C)(C)OC(=O)N1CCC(CNS(=O)(=O)c2ccccc2)CC1` [Y083, 4-(benzenesulfonylaminomethyl)piperidine-1-carboxylic acid tert-butyl ester] yielded an inhibition at 50 µM of 24%.

The molecule `CC(C)(C)OC(=O)N1CCC(CNS(=O)(=O)c2cccc(S(=O)(=O)NCC3CCCCC3)c2)CC1` [Y101, 4-{[3-(cyclohexylmethylsulfamoyl)benzenesulfonylamino]methyl}-piperidine-1-carboxylic acid tert-butyl ester] displayed an inhibition at 50 µM in experiment [1] of 74%.

In the case of `Cc1ccc(N(C)S(=O)(=O)c2cccc(S(=O)(=O)N(C)CC3CCN(C(=O)OC(C)(C)C)CC3)c2)cc1` [Y191, 4-({methyl-[3-(methyl-p-tolylsulfamoyl)benzenesulfonyl]amino}methyl)piperidine-1-carboxylic acid tert-butyl ester], testing at 20 µM in experiment [1] (20 μM test compound) gave an inhibition of 54%.

As to `CC(=O)c1ccc(NS(=O)(=O)c2cccc(S(=O)(=O)NCC3CCN(C(=O)OC(C)(C)C)CC3)c2)cc1` [Y192, 4-{[3-(4-acetylphenylsulfamoyl)benzenesulfonylamino]methyl}piperidine-1-carboxylic acid tert-butyl ester], the inhibition at 20 µM in experiment [1] (20 μM test compound) was above 18.4%.

The molecule `CC(O)c1ccc(NS(=O)(=O)c2cccc(S(=O)(=O)NCC3CCN(C(=O)OC(C)(C)C)CC3)c2)cc1` (centres unmarked) [Y195, 4-({3-[4-(1-hydroxyethyl)phenylsulfamoyl]benzenesulfonylamino}methyl)-piperidine-1-carboxylic acid tert-butyl ester] had an inhibition at 20 µM in experiment [1] (20 μM test compound) above 12.2%.

In experiment [1] (20 μM test compound), `CN(CC1CCN(C(=O)OC(C)(C)C)CC1)S(=O)(=O)c1cccc(S(=O)(=O)N(C)c2ccc(C(C)(C)C)cc2)c1` [Y205, 4-[({3-[(4-tert-butylphenyl)methylsulfamoyl]benzenesulfonyl}methylamino)-methyl]piperidine-1-carboxylic acid tert-butyl ester] had an inhibition at 20 µM of 60%.

In experiment [1], `Cc1c(C)c(S(=O)(=O)NCC2CCN(C(=O)OC(C)(C)C)CC2)c(C)c(S(=O)(=O)Nc2ccc(C(C)(C)C)cc2)c1C` [Y335, 4-{[3-(4-tert-butylphenylsulfamoyl)-2,4,5,6-tetramethylbenzenesulfonylamino]methyl}piperidine-1-carboxylic acid tert-butyl ester] registered an IC50 of 0.8 µM.

On to `CN(C)c1ccc(NS(=O)(=O)c2cccc(S(=O)(=O)NCC3CCNCC3)c2)cc1-c1ccco1` [Y516, 4-{[3-(4-dimethylamino-3-furan-2-yl-phenylsulfamoyl)benzenesulfonylamino]methyl}piperidine], for which the IC50 in experiment [1] amounted to 66 µM. Further, in experiment [2], the “mRNA expression level of α smooth muscle actin in the liver tissue” value is on record as “significantly suppressed”.

With `CCCC(=O)N1CCC(CNS(=O)(=O)c2cccc(S(=O)(=O)Nc3ccc(N(C)C)c(-c4ccco4)c3)c2)CC1` [Y639, 4-{[3-(4-dimethylamino-3-furan-2-yl-phenylsulfamoyl)benzenesulfonylamino]methyl}-1-butyryl-piperidine], the IC50 in experiment [1] stood at 3.9 µM.
